Data from US11123323B2, “Monoterpenes for treating respiratory disorders, in particular bronchopulmonary disorders” (Maria Clemetine Martin Klosterfrau Vertriebsqesellschaft MBH, priority 2008, dated 2021).

How the values were obtained:
[1] = tested on: IL-1beta production in LPS-stimulated human monocytes; assay: LPS-stimulated production of IL-1beta in human monocytes in vitro (ELISA); type: cell-based; conditions: for IL-1beta: LPS, 20 hours
Excerpt: 1,8-Cineol intensifies in particular the action of subtherapeutic concentrations of beclometasone which are relevant for the peripheral respiratory tract.

[2] = tested on: FCS-stimulated production of superoxides (O2^−) in normal human monocytes; assay: FCS-stimulated superoxide production of normal human monocytes in vitro (INT-formazan); type: cell-based; conditions: for O2^−: FCS 10%
Method: As already described, monocytes were isolated from 50 ml of venous blood which was repeatedly donated voluntarily for the experiments by healthy non-smoking subjects (n=4). […] To this end, the active compounds were incubated together with freshly isolated monocytes (10^5/ml) and the FCS stimulus (10%, from Sigma) for 20 hours in a cell culture medium (RPMI-1640, from Sigma). […] The determination of the cytosolic superoxide production is based on the reduction of the dye p-iodonitrotetrazolium violet (INTV), which reacts specifically with superoxide ions, to iodonitrotetrazolium formazan (formazan). INTV is taken up by the cells into the cytosol. Intracellularly, the nitrogen cycle of the INTV is reduced by free superoxide radicals, giving rise to a water-soluble intermediate and the water-insoluble formazan, which have their absorption maxima at 505 and 490 nm, respectively. […] At the end of an experiment, the cell lysate is (after treatment with hydrochloric acid) measured at 492 nm in a photometer. Here, the absorption of light is proportional to the amount of intracellularly accumulated INT-formazan which can then be determined using a formazan calibration curve. The INT-formazan accumulation for its part is determined as a measure for the intracellular production of superoxide.

[3] = becl. 10^−9 mol/l, Table 5 series
[4] = becl. 10^−9 mol/l, Table 6 series
[5] = becl. 10^−10 mol/l, Table 5 series
[6] = becl. 10^−10 mol/l, Table 6 series
[7] = becl. 10^−11 mol/l, Table 5 series
[8] = becl. 10^−11 mol/l, Table 6 series

With C[C@H]1C[C@H]2[C@@H]3CCC4=CC(=O)C=C[C@]4(C)[C@@]3(Cl)[C@@H](O)C[C@]2(C)[C@@]1(O)C(=O)CO [beclometasone] the “Effect vs. cineol 10^−6 mol/l Inhibition (%)” value ([1]; beclometasone 10^−9 mol/l) was 25.2 ± 20%, the “Effect vs. control Inhibition (%)” value ([1]; beclometasone 10^−9 mol/l) was 49.4 ± 20% and the IL-1beta ([1]; beclometasone 10^−9 mol/l) was 2654 ± 545 Pg/5 × 10^4 cells. The “Effect vs. control Inhibition (%)” value ([1]; beclometasone 10^−10 mol/l) was 22.9 ± 23%, the “production of IL-1beta, change” value ([1]; beclometasone 10^−10 mol/l) was −22.9% and the “Effect vs. cineol 10^−6 mol/l Inhibition (%)” value ([1]; beclometasone 10^−10 mol/l, (+) in brackets = more IL-1beta than with cineol) was “(+14 ± 23) %”. For the same molecule, the IL-1beta ([1]; beclometasone 10^−10 mol/l) was 4047 ± 940 Pg/5 × 10^4 cells, the “Effect vs. control Inhibition (%)” value ([1]; beclometasone 10^−11 mol/l) was 19.7 ± 20% and the “production of IL-1beta, change” value ([1]; beclometasone 10^−11 mol/l) was −19.7%. The “Effect vs. cineol 10^−6 mol/l Inhibition (%)” value ([1]; beclometasone 10^−11 mol/l, (+) in brackets = more IL-1beta than with cineol) was “(+18.9 ± 20) %”, the IL-1beta ([1]; beclometasone 10^−11 mol/l) was 4217 ± 864 Pg/5 × 10^4 cells and the “Effect vs. control Inhibition (%)” value ([1]; beclometasone 10^−12 mol/l) was 0.1 ± 19%. The “production of IL-1beta, change” value ([1]; beclometasone 10^−12 mol/l) was 0%, the “Effect vs. cineol 10^−6 mol/l Inhibition (%)” value ([1]; beclometasone 10^−12 mol/l, (+) in brackets = more IL-1beta than with cineol) was “(+47.8 ± 19) %” and the IL-1beta ([1]; beclometasone 10^−12 mol/l) was 5246 ± 1028 Pg/5 × 10^4 cells. For the same molecule, the “inhibition of LPS-stimulated production of IL-1beta” value ([1]; beclometasone on its own, concentration not given) was 49.9±20%, the “O2^−” value [2, 3] was 16052 ± 969 nmol/mL and the “O2^−” value [2, 4] was 17338 ± 1305 nmol/mL. The Percent of control [2, 3] was −10 ± 6%, the Percent of control [2, 4] was −8 ± 7% and the “O2^−” value [2, 5] was 16445 ± 903 nmol/mL. The “O2^−” value [2, 6] was 17577 ± 1191 nmol/mL, the Percent of control [2, 5] was −8 ± 5% and the Percent of control [2, 6] was −6 ± 7%. The “O2^−” value [2, 7] was 16562 ± 1081 nmol/mL, the “O2^−” value [2, 8] was 17639 ± 1372 nmol/mL and the Percent of control [2, 7] was −7 ± 6%. The Percent of control [2, 8] was −6 ± 8%, the “O2^−” value ([2]; beclometasone 10^−6 mol/l, 20 hours, Table 3 series) was 18240 ± 463 nmol/mL and the “O2^−” value ([2]; beclometasone 10^−7 mol/l, 20 hours, Table 3 series) was 16782 ± 678 nmol/mL. The Percent of control ([2]; beclometasone 10^−7 mol/l, vs FCS control, Table 3 series) was “+5.8 ± 4%”, the “O2^−” value ([2]; beclometasone 10^−8 mol/l, 20 hours, Table 3 series) was 16035 ± 639 nmol/mL and the Percent of control ([2]; beclometasone 10^−8 mol/l, vs FCS control, Table 3 series) was −1.1 ± 4%. The “O2^−” value ([2]; beclometasone 10^−9 mol/l, 20 hours, Table 3 series) was 14192 ± 733 nmol/mL, the Percent of control ([2]; beclometasone 10^−9 mol/l, vs FCS control, Table 3 series) was −10.5±5% and the “O2^−” value ([2]; beclometasone 10^−10 mol/l, 20 hours, Table 3 series) was 14702 ± 682 nmol/mL. For the same molecule, the Percent of control ([2]; beclometasone 10^−10 mol/l, vs FCS control, Table 3 series) was −7.3 ± 5%, the “O2^−” value ([2]; beclometasone 10^−11 mol/l, 20 hours, Table 3 series) was 15042 + 568 nmol/ml and the Percent of control ([2]; beclometasone 10^−11 mol/l, vs FCS control, Table 3 series) was −5.1 ± 3%. For the same molecule, the “effect on the O2^− production” value ([2]; beclometasone 10^−11 to 10^−9 mol/l on its own, Table 6 series) was “no detectable effect on the O2^− production”, the “O2^−” value ([2]; beclometasone 10^−12 mol/l, 20 hours, Table 3 series) was 15050 ± 455 nmol/mL and the Percent of control ([2]; beclometasone 10^−12 mol/l, vs FCS control, Table 3 series) was −5.1 ± 3%. The “monocyte O2^− production” value ([2]; high concentrations (10^−8 mol/l and above) of beclometasone, FIG. 4) was “stimulated the monocyte O2^− production”.
